Values quoted from earlier work, collected in patent publication US20230285286A1, “DRUG VEHICLE COMPOSITIONS AND METHODS OF USE THEREOF” (PS Therapy, Inc., priority 2016, published 2023).
Structures can show the parent of a compound that is named as a salt.

Key:
[1] = deionized water at 25° C.

| Compound | LogP Value | Solubility in Water (PPM) [1] [PPM] |
| --- | --- | --- |
| O=C(O)c1cc(=O)c2c(OCC(O)COc3cccc4oc(C(=O)O)cc(=O)c34)cccc2o1 [Cromolyn Sodium] | 4.8 | 100000 |
| CC(C)(C)NC[C@H](O)COc1nsnc1N1CCOCC1 [Timolol Maleate] |  | 5000 |
| Gramicidin |  | 6 |
| N[C@@H]1CCCCN(c2c(F)cc3c(=O)c(C(=O)O)cn(C4CC4)c3c2Cl)C1 [Besifloxacin] | 0.54 | 0 |
| CC(=O)OCC(=O)[C@@]1(O)CC[C@H]2[C@@H]3CCC4=CC(=O)C=C[C@]4(C)[C@H]3[C@@H](O)C[C@@]21C [Prednisolone Acetate] | 1.332 |  |
| CCN[C@H]1C[C@H](C)S(=O)(=O)c2sc(S(N)(=O)=O)cc21 [Dorzolamide] | -1 | 699 |
| CC(C(=O)O)c1ccc(-c2ccccc2)c(F)c1 (centres unmarked) [Flurbiprofen] |  | 5 |
| O=C(c1ccccc1)c1ccc2n1CCC2C(=O)O (centres unmarked) [Ketorolac Tromethamine] | -0.92 | 861 |
| CC(=O)O[C@]1(C(C)=O)CC[C@H]2[C@@H]3C[C@H](C)C4=CC(=O)C=C[C@]4(C)[C@@]3(F)[C@@H](O)C[C@@]21C [Fluorometholone Acetate] |  | 6.27 |
| CN1CCC(=C2c3ccccc3CCn3c(C=O)cnc32)CC1 [Alcaftadine] | 3.2 | 17 |
| CC(C)(C)NC[C@H](O)COc1cccc2c1CCCC2=O [Levobunolol HCl] |  | 251 |
| CN1CCCC(n2nc(Cc3ccc(Cl)cc3)c3ccccc3c2=O)CC1 (centres unmarked) [Azelastine HCl] | 3.81 | 35 |
| N#Cc1cc(NC(=O)C(=O)O)c(Cl)c(NC(=O)C(=O)O)c1.NC(CO)(CO)CO.NC(CO)(CO)CO [Lodoxamide Tromethamine] | 0.72 | 36.1 |
| CCCc1c2oc(C(=O)O)cc(=O)c2cc2c(=O)cc(C(=O)O)n(CC)c12 [Nedocromil Sodium] | 2.82 | 80.8 |
| CCCC(=O)O[C@]1(C(=O)COC(C)=O)CC[C@H]2[C@@H]3C[C@H](F)C4=CC(=O)C=C[C@]4(C)[C@@]3(F)[C@@H](O)C[C@@]21C [Difluprednate] | 3.28 | 1 |
| CC(C)NCC(O)COc1ccc(CCOCC2CC2)cc1 (centres unmarked) [Betaxolol HCl] | 3 | 17190 |
| CC[C@H]1OC(=O)[C@H](C)[C@@H](O[C@H]2C[C@@](C)(OC)[C@@H](O)[C@H](C)O2)[C@H](C)[C@@H](O[C@@H]2O[C@H](C)C[C@H](N(C)C)[C@H]2O)[C@](C)(O)C[C@@H](C)C(=O)[C@H](C)[C@@H](O)[C@]1(C)O [Erythromycin] | 2.6 | 2000 |
| Brc1c(NC2=NCCN2)ccc2nccnc12 [Brimonidine] |  | 150 |
| CC(C)Cc1ccc(C(C)C(=O)O)cc1 (centres unmarked) [Ibuprofen] |  | 21 |
| CC(C)OC(=O)CCC/C=C\C[C@@H]1[C@@H](CC[C@@H](O)CCc2ccccc2)[C@H](O)C[C@@H]1O [Latanoprost] |  | 1.29 |

| Compound | LogP Value | Solubility in Water (PPM) [1] [PPM] |
| --- | --- | --- |
| Nc1c(CC(=O)O)cccc1C(=O)c1ccc(Br)cc1 [Bromfenac] | 3.4 | 12 |
| CCOC(=O)O[C@]1(C(=O)OCCl)CC[C@H]2[C@@H]3CCC4=CC(=O)C=C[C@]4(C)[C@H]3[C@@H](O)C[C@@]21C [Loteprednol Etabonate] | 3.4 | 0.5 |
| O=C(O)CCCN1CCC(O[C@@H](c2ccc(Cl)cc2)c2ccccn2)CC1.O=S(=O)(O)c1ccccc1 [Bepotastine Besilate] |  | 50 |
| Gentamicin | -3.1 |  |
| COc1c(N2C[C@@H]3CCCN[C@@H]3C2)c(F)cc2c(=O)c(C(=O)O)cn(C3CC3)c12 [Moxifloxacin] |  | 1146 |
| C=CC[C@@H]1/C=C(\C)C[C@H](C)C[C@H](OC)[C@H]2O[C@@](O)(C(=O)C(=O)N3CCCC[C@H]3C(=O)O[C@H](/C(C)=C/[C@@H]3CC[C@@H](O)[C@H](OC)C3)[C@H](C)[C@@H](O)CC1=O)[C@H](C)C[C@@H]2OC [Tacrolimus] | 5.59 | 12 |
| CC(C)OC(=O)CCC/C=C\C[C@@H]1[C@@H](/C=C/C(F)(F)COc2ccccc2)[C@H](O)C[C@@H]1O [Tafluprost] | 4.05 | 0 |
| CCC(=O)[C@@]1(C)[C@H](C)C[C@H]2[C@@H]3CCC4=CC(=O)C=C[C@]4(C)[C@H]3[C@@H](O)C[C@@]21C [Rimexolone] | 4.2 | 0 |
| NC(=O)Cc1cccc(C(=O)c2ccccc2)c1N [Nepafenac] | 1.53 | 14 |
| CCOCCn1c(N2CCCN(C)CC2)nc2ccccc21 [Emedastine Difumarate] | 2.6 | 1440 |
| CC(C)OC(=O)CCC/C=C\C[C@@H]1[C@@H](/C=C/[C@@H](O)COc2cccc(C(F)(F)F)c2)[C@H](O)C[C@@H]1O [Travoprost] | 4.6 | 16000 |
| COc1cc(Cc2cnc(N)nc2N)cc(OC)c1OC [Trimethoprim] |  | 999 |
| NC1=NCC2c3ccccc3Cc3ccccc3N12 (centres unmarked) [Epinastine HCl] | 2.34 |  |
| CN(C)CC/C=C1/c2ccccc2COc2ccc(CC(=O)O)cc21 [Olopatadine HCl] | 3.4 | 31.3 |
| Polymyxin B |  | 0 |
| CC[C@H]1OC(=O)[C@H](C)[C@@H](O[C@H]2C[C@@](C)(OC)[C@@H](O)[C@H](C)O2)[C@H](C)[C@@H](O[C@@H]2O[C@H](C)C[C@H](N(C)C)[C@H]2O)[C@](C)(O)C[C@@H](C)CN(C)[C@H](C)[C@@H](O)[C@]1(C)O [Azithromycin] | 3.03 | 2.37 |
| CN1CCC(=C2c3ccccc3CC(=O)c3sccc32)CC1 [Ketotifen Fumarate] | 3.49 | 7.87 |
| NC[C@H]1O[C@H](O[C@H]2[C@H](O)[C@@H](O[C@H]3O[C@H](CO)[C@@H](O)[C@H](N)[C@H]3O)[C@H](N)C[C@@H]2N)[C@H](N)C[C@@H]1O [Tobramycin] | -5.8 | 10000 |
| CCN[C@H]1CN(CCCOC)S(=O)(=O)c2sc(S(N)(=O)=O)cc21 [Brinzolamide] | -1.8 | 713 |
| CCNC(=O)CCC/C=C\C[C@@H]1[C@@H](/C=C/[C@@H](O)CCc2ccccc2)[C@H](O)C[C@@H]1O [Bimatoprost] | 3.2 | 19 |
